Measurements as given in patent publication US20030138432A1, “Selective cellular targeting: multifunctional delivery vehicles, multifunctional prodrugs, use as antineoplastic drugs” (Drug Innovation & Design, Inc., priority 1999, published 2003).
Like-named read-outs stand apart in the source and are kept apart here. Blank lines part the entries; values can stand above or below the molecule they belong to.

Legend:
PSMA = target: T1, PSMA (Homo sapiens, UniProt Q04609); assay: Inhibition of PSMA, radiolabelled N-acetylaspartylglutamate as substrate, generation of glutamic acid monitored; assay type: biochemical
T1 construct: PSMA was prepared from LNCaP prostatic carcinoma cells as described by Pinto J. T. et al; endogenous in cells; host or cells: LNCaP prostatic carcinoma cells
T1 sequence (Q04609 whole entry): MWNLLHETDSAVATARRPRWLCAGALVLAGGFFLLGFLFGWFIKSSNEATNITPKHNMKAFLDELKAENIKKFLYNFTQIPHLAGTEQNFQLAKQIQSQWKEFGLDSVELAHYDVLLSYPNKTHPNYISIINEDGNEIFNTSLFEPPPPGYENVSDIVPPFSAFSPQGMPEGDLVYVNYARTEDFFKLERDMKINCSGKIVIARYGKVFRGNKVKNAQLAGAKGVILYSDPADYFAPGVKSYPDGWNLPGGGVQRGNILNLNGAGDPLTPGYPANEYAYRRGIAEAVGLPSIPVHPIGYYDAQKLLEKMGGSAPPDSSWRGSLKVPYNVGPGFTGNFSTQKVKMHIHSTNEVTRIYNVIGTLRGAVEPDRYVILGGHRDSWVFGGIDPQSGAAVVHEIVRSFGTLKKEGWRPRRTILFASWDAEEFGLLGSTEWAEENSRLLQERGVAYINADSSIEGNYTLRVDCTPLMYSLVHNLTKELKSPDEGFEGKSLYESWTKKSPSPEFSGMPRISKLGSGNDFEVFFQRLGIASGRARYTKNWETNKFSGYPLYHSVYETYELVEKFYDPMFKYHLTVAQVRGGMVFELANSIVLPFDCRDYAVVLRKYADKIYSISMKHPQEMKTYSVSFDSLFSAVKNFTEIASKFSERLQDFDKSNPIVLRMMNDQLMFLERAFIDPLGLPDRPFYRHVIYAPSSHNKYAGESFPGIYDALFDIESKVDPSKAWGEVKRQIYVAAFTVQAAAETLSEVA
Procedure: PSMA was prepared from LNCaP prostatic carcinoma cells as described by Pinto J. T. et al., Clinical Cancer Res. Vol.2 p.1445 (1996). The enzyme was assayed employing radiolabelled N-acetylaspartylglutamate as a substrate and monitoring the generation of glutamic acid in the presence of varying concentrations of Compound 1 or 1.1. […] Compound 1.1 inhibited the enzyme 50% at 3.4 nM.

[1] = system: PSMA positive human prostate tumor cells; assay: In vitro growth of PSMA positive prostate tumor cells with a PSMA inhibitor; assay type: cell-based; conditions: in the presence of high concentrations of the inhibitor
IMP dehydrogenase = conditions: cited from earlier work
[2] = target: dihydroorotic acid dehydrogenase (Homo sapiens, UniProt Q02127); conditions: cited from earlier work
Sequence of dihydroorotic acid dehydrogenase (Q02127 whole entry): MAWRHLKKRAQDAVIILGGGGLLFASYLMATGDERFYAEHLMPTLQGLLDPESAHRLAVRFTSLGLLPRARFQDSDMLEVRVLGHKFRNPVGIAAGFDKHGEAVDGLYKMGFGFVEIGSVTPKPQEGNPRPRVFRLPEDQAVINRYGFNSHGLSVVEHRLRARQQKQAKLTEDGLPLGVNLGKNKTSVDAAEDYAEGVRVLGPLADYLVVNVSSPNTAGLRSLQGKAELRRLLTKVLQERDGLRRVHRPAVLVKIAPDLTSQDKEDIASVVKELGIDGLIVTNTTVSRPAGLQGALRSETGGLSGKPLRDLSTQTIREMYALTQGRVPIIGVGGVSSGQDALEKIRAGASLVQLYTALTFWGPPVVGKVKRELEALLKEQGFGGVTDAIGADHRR

PKA = PKA (Homo sapiens, UniProt P17612); conditions: cited from earlier work
Protein Kinase C (PKC) = conditions: cited from earlier work
[3] = read-out: IC50 (cytotoxin); cited from earlier work

IC50 (PSMA; PSMA prepared from LNCaP prostatic carcinoma cells, radiolabelled N-acetylaspartylglutamate substrate, read-out: concentration that inhibited the enzyme 50%): 20 nM
Ki (PSMA; PSMA prepared from LNCaP prostatic carcinoma cells, read-out: Ki for inhibition of PSMA): 20 nM
Molecule: O=C(O)CCC(OP(=O)(O)OCCCOCCNC(=O)CCCCCNS(=O)(=O)c1ccc(C2=c3cc4c5c(c3Oc3c2cc2c6c3CCCN6CCC2)CCC[N+]=5CCC4)c(S(=O)(=O)[O-])c1)C(=O)O (stereo not shown) [Compound 1]

Molecule: O=C(O)CCC(CP(=O)(O)O)C(=O)O (stereo not shown) [2-(phosphonomethyl)-pentanedioic acid]
growth of tumor cells in vitro [1]: readily grow

Molecule: O=C(O)CCC(CP(=O)(O)CCC(=O)NC(CCCCNC(=S)Nc1ccc(-c2c3ccc(=O)cc-3oc3cc(O)ccc23)c(C(=O)O)c1)C(=O)NCCc1ccc(O)cc1)C(=O)O (stereo not shown) [Compound 1.1]
IC50 (PSMA): 3.4 nM
Ki (PSMA): 3.4 nM

Molecule: COc1c(C)c2c(c(O)c1C/C=C(\C)CCC(=O)O)C(=O)OC2 [mycophenolic acid]
level at which IMP dehydrogenase is inhibited (IMP dehydrogenase): nanomolar levels

Molecule: Cc1c(-c2ccc(-c3ccccc3F)cc2)nc2ccc(F)cc2c1C(=O)O [brequinar]
level at which dihydroorotic acid dehydrogenase is inhibited [2]: nonamolar levels

Molecule: 10″-deoxybalanol
Ki (PKA): 4 nM
Ki (Protein Kinase C (PKC)): 640 nM

Molecule: COc1c(C)cc2c(c1O)C1C3Cc4c(OC(C)=O)c(C)c5c(c4C(CN4C(=O)c6ccccc6C4=O)N3C(C#N)C(C2)N1C)OCO5 (stereo not shown) [Phthalascidin]
IC50 [3]: 0.1 to 1 nM
